# Values of other authors as cited in PMC11675001, “Monovalent and Divalent Designs of Copper Radiotheranostics Targeting Fibroblast Activation Protein in Cancer” (Cancers, 2024).
# Columns and labels:
# [1] = ref European Journal of Nuclear Medicine and Molecular Imaging (2022): 1-11 [3]; Pharmaceuticals 16, no. 8 (2023): 1138 [4]
# [2] = after 3 h; ref European Journal of Nuclear Medicine and Molecular Imaging (2022): 1-11 [3]; Pharmaceuticals 16, no. 8 (2023): 1138 [4]
structure (smiles),measurement,setting,value
CN(CCCN1CCN(C(=O)CN2CCN(CC(=O)[O-])CCN(CC(=O)[O-])CCN(CC(=O)[O-])CC2)CC1)c1ccc2nccc(C(=O)NCC(=O)N3CC(F)(F)C[C@H]3C#N)c2c1.[68Ga+3] [[68Ga]Ga-FAPI-46],Partition coefficient (LogP),[1],−3.57
same,Stability,[2],> 95.3%
